Values joined by “and” are separate entries in the source; they are usually repeats but may differ in a detail not shown here. Equal entries are not always repeated. Where a SMILES comes first, the peptide text is derived from it.

Consider 70 compounds from the pKa sets of Baltruschat and Czodrowski (2020).

Regarding `NC(=O)C1CC2CCN1CC2` (stereo unspecified), the pKa (acidic group) was found to be 9.04.

Turning to `Cn1cnc(C(=O)[O-])c1C(=O)O`, the pKa (acidic group) stood at 3.9.

Where the note is “acidic group”, `O=C([O-])c1ccc([N+](=O)[O-])cc1O` came in with a pKa of 10.3.

As for `Cc1ccc(O)c2[n+]1CCS2`, the pKa (acidic group) worked out at 4.7.

In the case of `O=C([O-])[C@@H]1CCCN1C(=O)[C@@H]1CCCN1` (H-Pro-Pro-OH), where the note is “basic group”, the pKa was determined as 9.27.

Regarding `COc1cccc(C(=N)c2ccccc2)c1`, the pKa (basic group) was found to be 6.59.

For `CCOC(=O)c1cccnc1`, for the setting “basic group”, the pKa came out at 3.2.

Regarding `c1coc(CSc2ncnc3nc[nH]c23)c1`, the pKa (acidic group) was determined as 8.42.

Turning to `CCCC(C)C1C(=O)NC(=S)N=C1[O-]` (stereo unspecified), the pKa (acidic group) was found to be 11.4.

`CCOc1ccc2ccc(OCC)c(N3CCOCC3)c2c1N1CCOCC1` registered a pKa (basic group) of 12.5.

Take `CC(C)=C(C#N)C(=O)O`: for the setting “acidic group”, the pKa came to 3.04.

For the compound `Cn1cnc(/N=N/O)n1`, the pKa (acidic group) is 5.48.

On to `Oc1ccc(OCc2ccccc2)cc1`, for which the pKa (acidic group) is 10.5.

For `N#CC(C#N)=C(C#N)NC1CCCCC1`, the pKa (acidic group) stood at 6.01.

On to `Cc1cnc2c(ccc3c(C)c(C)cnc32)c1C`, for which, where the note is “basic group”, the pKa amounted to 6.31.

For the compound `NCCC[NH3+]`, the pKa (basic group) worked out at 8.77.

`O=c1ccccc(O)c1[O-]` displayed a pKa (acidic group) of 11.5.

The compound `CN(C)C(=O)c1ncnc2nc[nH]c12` came in with a pKa (acidic group) of 7.9.

`Oc1cc2ccccc2cc1C1=[NH+]CCN1` showed a pKa (acidic group) of 7.01.

As for `c1ccc(-c2cc[nH+]cc2)nc1`, the pKa (basic group) came out at 1.19.

Where the note is “acidic group”, `Sc1ccc2ccccc2[nH+]1` had a pKa of -1.44.

Compound `O=C(O)c1cccc([N+](=O)[O-])c1C(=O)c1ccccc1` returned a pKa (acidic group) of 2.87.

Regarding `CN(C)CCN(C)CCN(C)C`, the pKa (basic group) is 9.55 and 9.4.

Compound `CN(C)c1ccc(/N=N/c2ccncc2)cc1` came in with a pKa (basic group) of 5.8.

Regarding `Cc1cc(C(=O)O)cc(C)[n+]1O`, the pKa (acidic group) was -0.01.

In the case of `Cc1ccccc1B(O)O`, the pKa (acidic group) was 9.74.

`CC(C[Si](C)(C)CCCCl)C(=O)O` (stereo unspecified) yielded a pKa (acidic group) of 5.05.

The compound `O=C(O)c1cc(=O)cc(-c2ccccc2)o1` gave a pKa (acidic group) of 1.51.

`C[n+]1ccc(N)nc1[O-]` displayed a pKa (basic group) of 4.52.

For `COc1ccc(C(=S)Nc2ccc(Cl)cc2)cc1`, the pKa (acidic group) was found to be 10.9.

Turning to `Nc1cccc(-c2ccccn2)n1`, the pKa (basic group) stood at 5.8.

Regarding `C[C@H](N)[C@H](O)c1ccccc1`, the pKa (basic group) amounted to 8.81.

Consider `Cc1cc([N+](=O)[O-])ccc1N`, for which the pKa (basic group) turned out to be 1.97.

As for `Nc1c(Br)cccc1Br`, under “basic group”, the pKa is 0.36.

Take `COC(=O)/C=C(\O)c1ccncc1`: the pKa (acidic group) was 7.51.

For the compound `CN(C)c1ccc([NH+](C)C)cc1`, the pKa (basic group) amounted to 2.5.

Regarding `CCCCCCCCCCN(CC(C)O)CC(C)O` (stereo unspecified), the pKa (basic group) amounted to 7.6.

Turning to `C[n+]1c(N)ccnc1[O-]`, the pKa came to 13.5 (acidic group) and 7.38 (basic group).

`CC(C[Si](C)(C)CCl)C(=O)O` (stereo unspecified) yielded a pKa (acidic group) of 5.32.

The compound `[NH3+][C@@H](Cc1nc[nH]c1I)C(=O)[O-]` displayed a pKa (basic group) of 4.18.

As for `O=C(O)c1ccc([N+](=O)[O-])s1`, the pKa (acidic group) is 2.68.

As for `Cn1cncn1`, for the setting “basic group”, the pKa stood at 2.31.

The compound `CC1CC(/C=C2\CC(C)(C)CN2)=NC1(C)C` (stereo unspecified) yielded a pKa (basic group) of 12.1.

For `[O-]c1nncc2ccccc12`, the pKa (basic group) came to 12.

For the setting “basic group”, `[S-]c1ncnc2ncncc12` had a pKa of 6.23.

`NS(=O)(=O)c1ccccc1` gave a pKa (acidic group) of 9.7.

As for `CC1CN(C)CCN1C` (stereo unspecified), the pKa (basic group) stood at 8.36.

Compound `CCc1c(-c2ccccc2)nn(-c2ccccc2)c1O` yielded a pKa (acidic group) of 8.

As to `CCO[Si](C)(CN)OCC`, the pKa (basic group) was found to be 9.19.

Compound `O=CC1CCCC1=O` (stereo unspecified) showed a pKa (acidic group) of 5.83.

Compound `CC[NH+]1CCC[C@@H]1CNC(=O)c1c(O)c(Cl)cc(Cl)c1OC` had a pKa (acidic group) of 5.75.

Regarding `COC(=O)c1cccc(NC=S)c1`, the pKa (acidic group) amounted to 10.8.

Where the note is “basic group”, `CC1=Nc2ccc([N+](=O)[O-])cc2[NH+]=C(C)C1` had a pKa of 2.2.

Regarding `Cc1ccc2ccc3ccc(C)nc3c2n1`, the pKa (basic group) was found to be 6.15.

`CC(=O)c1ccccn1` returned a pKa (basic group) of -0.46.

For the setting “basic group”, `CC1NCCC[NH2+]1` showed a pKa of 7.19.

Take `C[NH+](C)c1ccc(/N=N/c2ccncc2)cc1`: under “basic group”, the pKa is 3.4.

Under “basic group”, `CNc1ccccc1C` showed a pKa of 4.59.

On to `CC(=O)N1C[C@@]2(C(C)C)OC(=O)C[C@H]2[C@@H]1C(=O)O`, for which the pKa (acidic group) is 3.2.

With `Cc1cc[n+](O)cc1`, the pKa (acidic group) was 1.29.

`CCCC(=N)OCC`: the pKa (basic group) is 7.08.

For the compound `CCC(C)C[C@H]([NH3+])C(=O)O` (stereo partly specified), the pKa (acidic group) was found to be 3.25.

Under “basic group”, `CCN(CC)CCC#N` displayed a pKa of 7.62.

The compound `[O-]c1nc(NO)cc[n+]1[C@H]1O[C@@H](CO)[C@H](O)[C@@H]1O` had a pKa (acidic group) of 10.5.

Under “acidic group”, `Cc1nn(-c2ccccc2)c(O)c1C(C)C` yielded a pKa of 11.6.

For `Cc1cc([O-])[nH+]cn1`, the pKa (basic group) is 2.15.

Under “acidic group”, `Cc1ccc(S(=O)(=O)NCCC(=O)[O-])cc1` showed a pKa of 11.2.

As to `Nc1ccc([N+](=O)[O-])c2ccccc12`, for the setting “basic group”, the pKa turned out to be 0.53.

In turn, `C/C(O)=C/C(N)=O` displayed a pKa (acidic group) of 9.46.

`Oc1cccc2c1-c1cccc(O)c1-2`: where the note is “acidic group”, the pKa is 8.35.

As a reminder, the pKa is the negative logarithm of the acid dissociation constant. A low value points to a stronger acid or weaker base.
